Key:
Staphylococcus sp. = assay: in vitro antibacterial evaluation, MIC by broth dilution; format: cell-based; settings: broth dilution, 18 hours at 35° C.
Summary of the method: (§1)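 Test organisms, which included recent clinical isolates resistant to methicillin, penicillin and/or vancomycin, were inoculated at 5×10^5 CFU/mL into Muller-Hinton II […] containing antibiotic at 64-0.06 μg/mL. Minimum inhibitory concentrations were then read as the lowest level inhibiting growth.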

Escherichia coli = assay: as above; format: cell-based; settings: 18 hours at 35° C., strain ATCC 25922
Summary of the method: as §1

Streptococcus sp. = assay: as above; format: cell-based; settings: broth dilution, 18 hours at 35° C.
Summary of the method: as §1

Enterococcus sp. = assay: as above; format: cell-based; settings: broth dilution, 18 hours at 35° C.
Summary of the method: as §1

[1] = tested on: Enterococcus faecalis (GC 6189); assay: acute lethal infection in mice; format: in vivo; settings: female CD-1 mice, intraperitoneal challenge, intravenous 30 min. after infection, 7 day survival
Summary of the method: (§2)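 ED50 from 7 day survival ratios pooled over 3 separate tests. Female CD-1 mice, 20+/−2 gm, ip bacterial challenge (trypticase soy broth or hog gastric mucin) lethal to untreated controls in 24-48 hr; iv dosing 30 min after infection in saline or 5% dextrose, n=5/dose.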

[2] = tested on: Streptococcus pneumoniae (GC 1894); assay: acute lethal infection in mice; format: in vivo; settings: female CD-1 mice, intraperitoneal challenge, intravenous 30 min. after infection, 7 day survival
Summary of the method: as §2

[3] = tested on: Staphylococcus aureus-SMITH (GC 4543); assay: acute lethal infection in mice; format: in vivo; settings: acute lethal infection, female CD-1 mice, intraperitoneal challenge, intravenous 30 min. after infection, 7 day survival
Summary of the method: as §2

CCCC(C)C1OCC2OC(OC3C(CO)OC(Oc4ccc(CC5NC(=O)C(C(C)c6ccccc6)NC(=O)CNC(=O)C(CO)NC(=O)C(C(O)C6CNC(=N)N6C6OC(CO)C(O)C(O)C6O)NC(=O)C(C(O)C6CNC(=N)N6)NC5=O)cc4)C(O)C3O)C(O)C(O)C2O1 (stereo not drawn) [Example 111, Cyclo[glycyl-β-methylphenylalanyl-O-[4-O-[4,6-O-(2-methylpentylidene)hexopyranosyl]-hexopyranosyl]tyrosyl-3-(2-iminoimidazolidin-4-yl)seryl-3-(3-hexopyranosyl-2-iminoimidazolidin-4-yl)serylseryl]]
0.14 mg/kg: median effective dose (ED50), Staphylococcus aureus-SMITH (GC 4543) [3]
0.28 mg/kg: median effective dose (ED50), Enterococcus faecalis (GC 6189) [1]
2 µg/mL: MIC Enterococcus avium (GC 4558) (Enterococcus sp.; Enterococcus avium (GC 4558)) | MIC Enterococcus faecalis (ATCC 29212) (Enterococcus sp.; Enterococcus faecalis (ATCC 29212)) | MIC Enterococcus faecalis (GC 4552) (Enterococcus sp.; Enterococcus faecalis (GC 4552)) | MIC Enterococcus faecalis (GC 4553) (Enterococcus sp.; Enterococcus faecalis (GC 4553)) | MIC Enterococcus faecalis (GC 4554) (Enterococcus sp.; Enterococcus faecalis (GC 4554)) | MIC Enterococcus faecium (GC 4556) (Enterococcus sp.; Enterococcus faecium (GC 4556)) | MIC Enterococcus faecalis (ATCC 29212) (Enterococcus sp.; strain ATCC 29212) | MIC Enterococcus faecalis (GC 4552) (Enterococcus sp.; strain GC 4552) | MIC Enterococcus faecalis (GC 4553) (Enterococcus sp.; strain GC 4553) | MIC Enterococcus faecalis (GC 4554) (Enterococcus sp.; strain GC 4554) | MIC Enterococcus faecium (GC 4556) (Enterococcus sp.; strain GC 4556) | MIC Enterococcus avium (GC 4558) (Enterococcus sp.; strain GC 4558)
1 µg/mL: MIC Coagulase Negative Staphylococcus (GC 4548) (Staphylococcus sp.) | MIC Coagulase Negative Staphylococcus (GC 4551) (Staphylococcus sp.) | MIC Coagulase Negative Staphylococcus (ID-3941) (Staphylococcus sp.) | MIC Staphylococcus aureus (ATCC 29213) (Staphylococcus sp.) | MIC Staphylococcus aureus (GC 1131) (Staphylococcus sp.) | MIC Staphylococcus aureus (GC 4541) (Staphylococcus sp.) | MIC Staphylococcus aureus (GC 4542) (Staphylococcus sp.) | MIC Staphylococcus aureus (GC 4544) (Staphylococcus sp.) | MIC Staphylococcus aureus (GC 4545) (Staphylococcus sp.) | MIC Staphylococcus aureus-SMITH (GC 4543) (Staphylococcus sp.) | MIC Staphylococcus haemolyticus (GC 4546) (Staphylococcus sp.) | MIC Staphylococcus aureus (GC 1131) (Staphylococcus sp.; inoculum 5×10^5 CFU/mL, strain GC 1131) | MIC Staphylococcus aureus (ATCC 29213) (Staphylococcus sp.; strain ATCC 29213) | MIC Staphylococcus aureus (GC 4541) (Staphylococcus sp.; strain GC 4541) | MIC Staphylococcus aureus (GC 4542) (Staphylococcus sp.; strain GC 4542) | MIC Staphylococcus aureus (GC 4544) (Staphylococcus sp.; strain GC 4544) | MIC Staphylococcus aureus (GC 4545) (Staphylococcus sp.; strain GC 4545) | MIC Staphylococcus haemolyticus (GC 4546) (Staphylococcus sp.; strain GC 4546) | MIC Coagulase Negative Staphylococcus (GC 4548) (Staphylococcus sp.; strain GC 4548) | MIC Coagulase Negative Staphylococcus (GC 4551) (Staphylococcus sp.; strain GC 4551) | MIC Coagulase Negative Staphylococcus (ID-3941) (Staphylococcus sp.; strain ID-3941) | MIC Staphylococcus aureus-SMITH (GC 4543) (Staphylococcus sp.; strain SMITH GC 4543) | MIC Streptococcus agalactiae (GC 4564) (Streptococcus sp.; Streptococcus agalactiae (GC 4564)) | MIC Streptococcus agalactiae (GC 4564) (Streptococcus sp.; strain GC 4564) | MIC Enterococcus faecalis (GC 2242) (Enterococcus sp.; Enterococcus faecalis (GC 2242)) | MIC Enterococcus faecium (GC 2243) (Enterococcus sp.; Enterococcus faecium (GC 2243)) | MIC Enterococcus faecalis (GC 2242) (Enterococcus sp.; strain GC 2242) | MIC Enterococcus faecium (GC 2243) (Enterococcus sp.; strain GC 2243)
0.03 mg/kg: median effective dose (ED50), Streptococcus pneumoniae (GC 1894) [2]
0.5 µg/mL: MIC Coagulase Negative Staphylococcus (GC 4547) (Staphylococcus sp.) | MIC Coagulase Negative Staphylococcus (GC 4549) (Staphylococcus sp.) | MIC Coagulase Negative Staphylococcus (GC 4547) (Staphylococcus sp.; strain GC 4547) | MIC Coagulase Negative Staphylococcus (GC 4549) (Staphylococcus sp.; strain GC 4549) | MIC Streptococcus pneumoniae (GC 4565) (Streptococcus sp.; Streptococcus pneumoniae (GC 4565)) | MIC Streptococcus pyogenes (ID-3187) (Streptococcus sp.; Streptococcus pyogenes (ID-3187)) | MIC Streptococcus pneumoniae (GC 4565) (Streptococcus sp.; strain GC 4565) | MIC Streptococcus pyogenes (ID-3187) (Streptococcus sp.; strain ID-3187) | MIC Enterococcus faecium (GC 4557) (Enterococcus sp.; Enterococcus faecium (GC 4557)) | MIC Enterococcus faecium (GC 4557) (Enterococcus sp.; strain GC 4557)
32 µg/mL: MIC Escherichia coli (ATCC 25922) (Escherichia coli)
